Reference: patent US20240251790A1 (priority 2021, published 2024)

Assays:
Type in all cases: cell-based
[1] = test system: total microbial count (APC)
coliforms (ECC) = test system: coliforms (ECC)
yeast and mold (YM) = test system: yeast and mold (YM)

With Percitric acid [PCA] the “efficiency against APC” value [1] was “efficient”, the “efficiency against ECC” value (coliforms (ECC)) was “efficient” and the “effect on YM” value (yeast and mold (YM)) was “minimal effect”.
